This passage reports GI50 and TGI results from PubChem BioAssay (NCI).

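Compound exposure: 48 hours, 5 concentrations, 96-well plates. Abbreviation: GI50, concentration required for 50% inhibition of growth. The concentration for full growth arrest is given as TGI.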 Where only a bound is given, the exact number is not on record here.

Some test systems named below: M14 melanoma; ACHN renal; NCI-H23 lung; OVCAR-3 ovarian; KM12 colon; HCT-116 colon; OVCAR-4 ovarian; SW-620 colon; HOP-62 NSCLC; HCC-2998 colon.
Common to all, as to assay: growth of human tumour cells (NCI), 48 h

On to `CCN(CC)CCOc1nc2cc(OC)c(OC)cc2c2c1-c1ccc(OC)cc1C2=O`, for which the GI50 was 11.7 µM in the experiment with M14 melanoma; 11.5 µM in the experiment with ACHN renal; 12.5 µM in the experiment with NCI-H23 lung; 11.7 µM with OVCAR-3 ovarian; 1.51 µM in the experiment on KM12 colon; 1.35 µM in the experiment with HCT-116 colon. The GI50 in the experiment on OVCAR-4 ovarian was 13.9 µM; in the experiment with SW-620 colon it was 1.21 µM; with HOP-62 NSCLC, 10 µM; in the experiment on HCC-2998 colon, 14.3 µM. The TGI with M14 melanoma is 24 µM; in the experiment with ACHN renal it was 23.8 µM; with NCI-H23 lung, 27.9 µM; with OVCAR-3 ovarian, 24 µM; in the experiment with KM12 colon it was 2.87 µM; in the experiment on HCT-116 colon, 2.63 µM. Also, the TGI amounted to 33.5 µM in the experiment with OVCAR-4 ovarian, 2.68 µM with SW-620 colon, 22.2 µM in the experiment with HOP-62 NSCLC and 27.6 µM in the experiment with HCC-2998 colon.

For the compound `COc1cccc2c1[C@]1(O)C(O)CCCC21` (stereo not given in full), the TGI in the experiment with M14 melanoma, in the experiment on ACHN renal, with NCI-H23 lung, in the experiment with OVCAR-3 ovarian, in the experiment on KM12 colon and in the experiment on HCT-116 colon was over 100 µM in each case. Moreover, the TGI in the experiment with OVCAR-4 ovarian, in the experiment with SW-620 colon, with HOP-62 NSCLC and in the experiment with HCC-2998 colon was over 100 µM throughout.

For the compound `Cc1nn2c(/C=C3\C(=O)Nc4ccccc43)c(C)nc2s1`, the GI50 was 12.3 µM with M14 melanoma; over 100 µM with ACHN renal; 35.4 µM with NCI-H23 lung; 35.6 µM in the experiment with OVCAR-3 ovarian; 6.4 µM with KM12 colon; 15.7 µM in the experiment with HCT-116 colon. The GI50 with OVCAR-4 ovarian is over 100 µM; with SW-620 colon, 8.87 µM; in the experiment on HOP-62 NSCLC, 15.7 µM; in the experiment with HCC-2998 colon, 13.7 µM. For the same compound, the TGI with M14 melanoma, with ACHN renal, with NCI-H23 lung, with OVCAR-3 ovarian, in the experiment with KM12 colon and with HCT-116 colon was over 100 µM in each case. Besides, the TGI in the experiment with OVCAR-4 ovarian, in the experiment with SW-620 colon, with HOP-62 NSCLC and with HCC-2998 colon was over 100 µM in each case.

Take `S=C(Nc1ccccc1)N1CCn2c1nsc2=Nc1ccccc1`: the GI50 in the experiment with M14 melanoma was over 100 µM; in the experiment with ACHN renal, 50.3 µM; with NCI-H23 lung, 41.1 µM; with OVCAR-3 ovarian, 90 µM; with KM12 colon, over 100 µM; with HCT-116 colon it was 34.6 µM. Moreover, the GI50 was over 100 µM in the experiment with OVCAR-4 ovarian, 48.4 µM in the experiment with SW-620 colon, over 100 µM in the experiment with HOP-62 NSCLC and over 100 µM in the experiment with HCC-2998 colon. Besides, the TGI in the experiment on M14 melanoma, in the experiment with ACHN renal, in the experiment with NCI-H23 lung, with OVCAR-3 ovarian, in the experiment with KM12 colon and in the experiment on HCT-116 colon was over 100 µM throughout. In addition, the TGI in the experiment with OVCAR-4 ovarian, in the experiment on SW-620 colon, in the experiment on HOP-62 NSCLC and in the experiment with HCC-2998 colon was over 100 µM in each case.

Take `C/C=C/C(=O)[O-].N.N.N.N.N.[Co+3].[O-][Cl+3]([O-])([O-])[O-]`: the GI50 in the experiment on M14 melanoma, with ACHN renal, with NCI-H23 lung, in the experiment on OVCAR-3 ovarian, in the experiment with KM12 colon and with HCT-116 colon was over 100 µM each time. For the same compound, the GI50 with OVCAR-4 ovarian, with SW-620 colon, in the experiment on HOP-62 NSCLC and in the experiment on HCC-2998 colon was over 100 µM each time. The TGI with M14 melanoma, in the experiment on ACHN renal, in the experiment on NCI-H23 lung, with OVCAR-3 ovarian, with KM12 colon and in the experiment on HCT-116 colon was over 100 µM throughout. Moreover, the TGI in the experiment on OVCAR-4 ovarian, in the experiment on SW-620 colon, in the experiment on HOP-62 NSCLC and with HCC-2998 colon was over 100 µM each time.

With `COc1cc(/C=C\c2cc(OC)c(OC)c(OC)c2)cc(NS(=O)(=O)c2cccc(Cl)c2)c1OC`, the GI50 in the experiment with M14 melanoma is 0.0344 µM; with ACHN renal it was 0.109 µM; with NCI-H23 lung, 0.386 µM; in the experiment on OVCAR-3 ovarian it was 0.0346 µM; with KM12 colon, 0.0437 µM; with HCT-116 colon, 0.0368 µM. The GI50 in the experiment on OVCAR-4 ovarian was 0.248 µM; with SW-620 colon it was 0.0438 µM; in the experiment on HOP-62 NSCLC it was 3.16 µM; in the experiment on HCC-2998 colon, 0.313 µM. In addition, the TGI with M14 melanoma, in the experiment on ACHN renal, with NCI-H23 lung, with OVCAR-3 ovarian, in the experiment on KM12 colon and in the experiment with HCT-116 colon was over 100 µM throughout. For the same compound, the TGI with OVCAR-4 ovarian was over 100 µM; in the experiment on SW-620 colon it was over 100 µM; with HOP-62 NSCLC, over 100 µM; in the experiment with HCC-2998 colon, 60.6 µM.

As to `CC1(C)CC(=O)C(=CN2C(=O)CNC2=S)C(=O)C1`, the TGI in the experiment on M14 melanoma, in the experiment on ACHN renal, with NCI-H23 lung, with OVCAR-3 ovarian, in the experiment with KM12 colon and in the experiment on HCT-116 colon was over 100 µM throughout. For the same compound, the TGI with OVCAR-4 ovarian, with SW-620 colon, in the experiment on HOP-62 NSCLC and in the experiment with HCC-2998 colon was over 100 µM each time.

For the compound `COc1cc(CNC(=O)CCSc2nc3ccccc3c(=O)n2Cc2cc(OC)c(OC)c(OC)c2)cc(OC)c1OC`, the GI50 with M14 melanoma is 2.23 µM; with ACHN renal, 8.09 µM; in the experiment with NCI-H23 lung it was 6.87 µM; in the experiment on OVCAR-3 ovarian it was 4.23 µM; in the experiment on KM12 colon, 3.98 µM; in the experiment with HCT-116 colon, 3.76 µM. Besides, the GI50 is 10.8 µM with OVCAR-4 ovarian, 4.31 µM in the experiment with SW-620 colon, 4.36 µM with HOP-62 NSCLC and 13 µM with HCC-2998 colon. The TGI in the experiment on M14 melanoma is 5.8 µM; in the experiment on ACHN renal it was over 100 µM; in the experiment with NCI-H23 lung, over 100 µM; in the experiment on OVCAR-3 ovarian it was 18.2 µM; in the experiment with KM12 colon, over 100 µM; in the experiment on HCT-116 colon, 13.3 µM. Besides, the TGI is 77.1 µM with OVCAR-4 ovarian, over 100 µM with SW-620 colon, 28.7 µM in the experiment with HOP-62 NSCLC and 94.6 µM in the experiment on HCC-2998 colon.
